From ChEMBL document CHEMBL5260814, “Design strategies in the prodrugs of HIV-1 protease inhibitors to improve the pharmaceutical properties” (Eur J Med Chem, 2017)
pIC50: −log10 of the molar value. Converted amounts (≈) assume the structure as drawn. Blank lines part the entries; values can stand above or below the molecule they belong to.

What was measured:
[1] = Half life in calf; format: ADME, Bos taurus; conditions: cattle
[2] = biological target: T1, Peptidyl-prolyl cis-trans isomerase FKBP1A (Homo sapiens, UniProt P62942); test: Inhibition of FKBP12 (unknown origin) measured for 6 hrs relative to control; conditions: concentration not given here
[3] = Half life in mouse plasma at 10 mg/kg, ip measured after 3 hrs; format: ADME, organism-based
[4] = biological target: Human immunodeficiency virus type 1 protease (Human immunodeficiency virus 1, UniProt Q72874); test: Inhibition of HIV-1 protease by FRET-based assay
[5] = Drug uptake in dog MDCK-MDR1 cells; format: ADME, cell-based, Canis lupus familiaris
[6] = Solubility of compound at pH at 1 to 8; format: physicochemical
[7] = Aqueous solubility of compound; format: physicochemical; conditions: buffer
[8] = AUC in rat at 5 mg/kg, po; format: ADME, organism-based; parameters: dose 5 mg/kg, route po; conditions: in vivo
P-glycoprotein = test: Efflux ratio of apparent permeability across basal to apical membrane over apical to basal membrane in human Caco-2 cells in absence of P-glycoprotein; format: ADME, cell-based
[9] = Metabolic stability in rat liver microsome assessed as half life […]; format: ADME; conditions: liver microsomes
[10] = Metabolic stability in rat liver microsome assessed as compound remaining measured after 2 hrs; format: ADME; conditions: microsomes
[11] = Metabolic stability in rat liver microsome assessed as compound remaining measured after 4 hrs; format: ADME; conditions: microsomes
[12] = Prodrug conversion in human serum at 50 uM using glycylprolyl-para-nitroanilide as substrate measured for 1 hr relative to control; format: ADME, cell-free
[13] = Prodrug conversion in human serum at 50 uM using glycylprolyl-para-nitroanilide as substrate measured for 4 hrs relative to control; format: ADME, cell-free
[14] = Chemical stability of compound in PBS buffer at pH 4 assessed as half life measured for 24 hrs; format: physicochemical
[15] = Chemical stability of compound in PBS buffer at pH 7.4 assessed as half life measured for 24 hrs; format: physicochemical
[16] = Stability of compound in DPBS buffer at pH 7.4 assessed as half life measured for 48 hrs; format: physicochemical
[17] = Stability of compound in human Caco-2 cells assessed as half life measured for 48 hrs; format: ADME, cell-based
[18] = Equilibrium solubility of compound; format: physicochemical
[19] = biological target: T1, Peptidyl-prolyl cis-trans isomerase FKBP1A; test: Inhibition of FKBP12 (unknown origin)
[20] = Half life in mouse plasma at 10 mg/kg, ip measured after 12 hrs; format: ADME, organism-based
[21] = Stability of compound assessed as half life at pH 2; format: physicochemical; conditions: buffer
CEM-SS = test: Cytotoxicity against human CEM-SS cells assessed as inhibition of cell growth; format: functional
[22] = Oral bioavailability in rat at 3 mg/kg; format: ADME, organism-based; conditions: in vivo
[23] = Stability of compound in PBS buffer at pH 7.4 assessed as half life; format: physicochemical
[24] = Efflux ratio of apparent permeability across basal to apical membrane over apical to basal membrane in human Caco-2 cells; format: ADME, cell-based
[25] = Solubility of compound at pH at 7; format: physicochemical; conditions: pH 7
[26] = Solubility of compound at pH at 3 to 4; format: physicochemical
[27] = Solubility of compound at pH at 3; format: physicochemical; conditions: pH 3
[28] = Metabolic stability in rat plasma assessed as half life at 0.2 mg/kg, po; format: ADME
[29] = Efflux ratio of apparent permeability across apical to basolateral to basolateral to apical side in MDCK1 cells; format: ADME, cell-based

T1 sequence (P62942 whole entry): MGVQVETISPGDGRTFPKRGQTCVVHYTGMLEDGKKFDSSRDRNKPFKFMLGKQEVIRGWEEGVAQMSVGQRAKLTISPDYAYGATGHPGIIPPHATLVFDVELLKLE

half-life [1]: > 0.5 h
SMILES: CC(C)c1nc(CN(C)C(=O)N[C@H](C(=O)N[C@@H](Cc2ccccc2)C[C@H](OC(OP(=O)([O-])[O-])C(C)C)[C@H](Cc2ccccc2)NC(=O)OCc2cncs2)C(C)C)cs1.[Na+].[Na+] (stereo not given in full)

solubility [7]: > 5000 µg/mL | half-life [1]: 0.117 h | AUC [8]: 460 ng·h/mL
SMILES: CC(C)c1nc(CN(C)C(=O)N[C@H](C(=O)N[C@@H](Cc2ccccc2)C[C@H](OCOP(=O)([O-])[O-])[C@H](Cc2ccccc2)NC(=O)OCc2cncs2)C(C)C)cs1.[Na+].[Na+]

Stability [10]: 10% | Stability [11]: 46%
SMILES: Cc1cccc(C)c1OCC(=O)N[C@@H](Cc1ccccc1)[C@H](C[C@H](Cc1ccccc1)NC(=O)[C@H](C(C)C)N1CCCNC1=O)OC(=O)[C@@H](NC(=O)[C@@H](N)C(C)C)C(C)C

Stability [10]: 5% | half-life [14]: 101 h | half-life [15]: 5.4 h | solubility [7]: 7 µg/mL (≈ 11.1 µM)
SMILES: Cc1cccc(C)c1OCC(=O)N[C@@H](Cc1ccccc1)[C@@H](O)C[C@H](Cc1ccccc1)NC(=O)[C@H](C(C)C)N1CCCNC1=O [LOPINAVIR]

solubility [7]: > 5000 µg/mL | AUC [8]: 19650 ng·h/mL
SMILES: Cc1cccc(C)c1OCC(=O)N[C@@H](Cc1ccccc1)[C@H](C[C@H](Cc1ccccc1)NC(=O)[C@H](C(C)C)N1CCCNC1=O)OCOP(=O)([O-])[O-].[Na+].[Na+]

solubility [7]: > 5000 µg/mL | half-life [21]: < 0.25 h | AUC [8]: 630 ng·h/mL
SMILES: CC(O[C@@H](C[C@H](Cc1ccccc1)NC(=O)[C@@H](NC(=O)N(C)Cc1csc(C(C)C)n1)C(C)C)[C@H](Cc1ccccc1)NC(=O)OCc1cncs1)OP(=O)([O-])[O-].[Na+].[Na+] (stereo not given in full)

AUC [8]: 450 ng·h/mL
SMILES: CCCC(O[C@@H](C[C@H](Cc1ccccc1)NC(=O)[C@@H](NC(=O)N(C)Cc1csc(C(C)C)n1)C(C)C)[C@H](Cc1ccccc1)NC(=O)OCc1cncs1)OP(=O)([O-])[O-].[Na+].[Na+] (stereo not given in full)

Stability [10]: 26% | Stability [11]: 46%
SMILES: Cc1cccc(C)c1OCC(=O)N[C@@H](Cc1ccccc1)[C@H](C[C@H](Cc1ccccc1)NC(=O)[C@H](C(C)C)N1CCCNC1=O)OC(=O)[C@@H](NC(=O)CN)C(C)C

half-life [23]: 4 min
SMILES: Cc1cccc(C)c1OCC(=O)N[C@@H](Cc1ccccc1)[C@H](O)C(=O)N1CSC(C)(C)[C@H]1C(=O)NC(C)(C)C

bioavailability [22]: 32%
SMILES: CC(C)[C@H](N)C(=O)O[C@@H]1Cc2ccccc2[C@@H]1NC(=O)[C@H](Cc1ccccc1)C[C@H](O)CN1CCN(Cc2cccnc2)C[C@H]1C(=O)NC(C)(C)C

solubility [7]: > 5000 µg/mL | half-life [21]: < 0.25 h | AUC [8]: 9530 ng·h/mL
SMILES: Cc1cccc(C)c1OCC(=O)N[C@@H](Cc1ccccc1)[C@H](C[C@H](Cc1ccccc1)NC(=O)[C@H](C(C)C)N1CCCNC1=O)OC(C)OP(=O)([O-])[O-].[Na+].[Na+] (stereo not given in full)

efflux ratio (P-glycoprotein): 1.2 | half-life [9]: 0.783 h
SMILES: CC(C)[C@H](N)C(=O)O[C@H](CN1C[C@H]2CCCC[C@H]2C[C@H]1C(=O)NC(C)(C)C)[C@H](Cc1ccccc1)NC(=O)[C@H](CC(N)=O)NC(=O)c1ccc2ccccc2n1

Second part, the molecule before the results:

SMILES: COc1ccc(S(=O)(=O)N(CC(C)C)C[C@@H](O)[C@H](Cc2ccccc2)NC(=O)O[C@H]2CCOC2)cc1
inhibition [2]: 100% | half-life [3]: 0.5 h | pIC50 [4]: 8.38

SMILES: CC(C)(C)NC(=O)[C@@H]1C[C@@H]2CCCC[C@@H]2CN1C[C@@H](OC(=O)CCCC[C@@H]1SC[C@@H]2NC(=O)N[C@@H]21)[C@H](Cc1ccccc1)NC(=O)[C@H](CC(N)=O)NC(=O)c1ccc2ccccc2n1
Drug uptake [5]: 72%

SMILES: CC(C)CN(C[C@@H](OP(=O)([O-])[O-])[C@H](Cc1ccccc1)NC(=O)O[C@H]1CCOC1)S(=O)(=O)c1ccc(N)cc1.[Na+].[Na+] [FOSAMPRENAVIR SODIUM]
solubility [6]: > 3000 µg/mL

SMILES: CC(C)[C@@H](N)C(=O)O[C@H](CN1C[C@H]2CCCC[C@H]2C[C@H]1C(=O)NC(C)(C)C)[C@H](Cc1ccccc1)NC(=O)[C@H](CC(N)=O)NC(=O)c1ccc2ccccc2n1
efflux ratio (P-glycoprotein): 1.2 | half-life [9]: 0.933 h

SMILES: CC(C)[C@H](NC(=O)[C@H](N)C(C)C)C(=O)O[C@H](CN1C[C@H]2CCCC[C@H]2C[C@H]1C(=O)NC(C)(C)C)[C@H](Cc1ccccc1)NC(=O)[C@H](CC(N)=O)NC(=O)c1ccc2ccccc2n1
efflux ratio (P-glycoprotein): 1.2 | half-life [9]: 3.73 h

SMILES: CC(C)CN(C[C@@H](O)[C@H](Cc1ccccc1)NC(=O)O[C@H]1CO[C@H]2OCC[C@H]21)S(=O)(=O)c1ccc(CNC(=O)[C@@H]2CCCN2C(=O)[C@@H](N)C(C)C)cc1
Drug metabolism [12]: 2% | Drug metabolism [13]: 2%

SMILES: CC(C)(C)NC(=O)[C@@H]1C[C@@H]2CCCC[C@@H]2CN1C[C@@H](OC(=O)CCC(=O)OCC(O)C1OC(=O)C(O)=C1O)[C@H](Cc1ccccc1)NC(=O)[C@H](CC(N)=O)NC(=O)c1ccc2ccccc2n1 (stereo not given in full)
half-life [16]: 9.65 h | half-life [17]: 5.73 h

SMILES: CC(C)CN(C[C@@H](O)[C@H](Cc1ccccc1)NC(=O)O[C@H]1CCOC1)S(=O)(=O)c1ccc(N)cc1
solubility thermodynamic [18]: 160 µM (≈ 80.9 µg/mL)

SMILES: CCC(C)(C)C(=O)C(=O)N1CCCCC1C(=O)OC(CCc1ccc(OC)c(OC)c1)c1cccc(NC(=O)CCC(=O)N[C@@H](Cc2ccccc2)[C@H](O)CN(CC(C)C)S(=O)(=O)c2ccc(OC)cc2)c1 (stereo not given in full)
pIC50 [19]: 7.93 | inhibition [2]: 100% | half-life [20]: > 9 h | pIC50 [4]: 8.01

SMILES: CCCCCCCCCCCCCCCC(=O)OCC(COC(=O)CCCCCCCCCCCCCCC)OC(=O)CCC(=O)O[C@@H](C[C@@H](Cc1ccccc1)C(=O)N[C@H]1c2ccccc2C[C@H]1O)CN1CCN(Cc2cccnc2)C[C@H]1C(=O)NC(C)(C)C
CC50 (CEM-SS): > 100000 nM

SMILES: CCCCCCCC/C=C\CCCCCCCC(=O)OCC(COC(=O)CCCCCCC/C=C\CCCCCCCC)OC(=O)CCC(=O)O[C@@H](C[C@@H](Cc1ccccc1)C(=O)N[C@H]1c2ccccc2C[C@H]1O)CN1CCN(Cc2cccnc2)C[C@H]1C(=O)NC(C)(C)C
CC50 (CEM-SS): > 100000 nM

SMILES: CC(C)(C)NC(=O)[C@@H]1CN(Cc2cccnc2)CCN1C[C@@H](O)C[C@@H](Cc1ccccc1)C(=O)N[C@H]1c2ccccc2C[C@H]1O.O
bioavailability [22]: 76%

SMILES: COC(=O)N[C@H](C(=O)N[C@@H](Cc1ccccc1)[C@@H](O)CN(Cc1ccc(-c2ccccn2)cc1)NC(=O)[C@@H](NC(=O)OC)C(C)(C)C)C(C)(C)C [ATAZANAVIR]
efflux ratio [24]: 12

SMILES: CCCCCCCCCCCCCCCC(=O)OCC(COC(=O)CCCCCCCCCCCCCCC)OC(=O)CCC(=O)O[C@H](CN1C[C@H]2CCCC[C@H]2C[C@H]1C(=O)NC(C)(C)C)[C@H](Cc1ccccc1)NC(=O)[C@H](CC(N)=O)NC(=O)c1ccc2ccccc2n1
CC50 (CEM-SS): > 100000 nM

SMILES: COc1ccc(S(=O)(=O)N(CC(C)C)C[C@@H](O)[C@H](Cc2ccccc2)NC(=O)CCC(=O)O)cc1
pIC50 [4]: 7.93

SMILES: CC(C)CN(C[C@@H](OP(=O)([O-])[O-])[C@H](Cc1ccccc1)NC(=O)O[C@H]1CCOC1)S(=O)(=O)c1ccc(N)cc1.[Ca+2] [FOSAMPRENAVIR CALCIUM]
solubility [25]: 300 µg/mL | solubility [26]: 54000 µg/mL | solubility [27]: 54000 µg/mL | solubility thermodynamic [18]: 400 µM

SMILES: CC(C)CN(C[C@@H](OP(=O)(O)O)[C@H](Cc1ccccc1)NC(=O)O[C@H]1CCOC1)S(=O)(=O)c1ccc(N)cc1 [FOSAMPRENAVIR]
solubility [6]: > 3000 µg/mL

SMILES: CC(C)[C@H](N)C(=O)N[C@H](C(=O)O[C@H](CN1C[C@H]2CCCC[C@H]2C[C@H]1C(=O)NC(C)(C)C)[C@H](Cc1ccccc1)NC(=O)[C@H](CC(N)=O)NC(=O)c1ccc2ccccc2n1)C(C)C
efflux ratio (P-glycoprotein): 1.2 | half-life [9]: 1.48 h | half-life [28]: 7.8 h | Ratio [29]: 2.1

SMILES: CCCCCCCC/C=C\CCCCCCCC(=O)OCC(COC(=O)CCCCCCC/C=C\CCCCCCCC)OC(=O)CCC(=O)O[C@H](CN1C[C@H]2CCCC[C@H]2C[C@H]1C(=O)NC(C)(C)C)[C@H](Cc1ccccc1)NC(=O)[C@H](CC(N)=O)NC(=O)c1ccc2ccccc2n1
CC50 (CEM-SS): > 100000 nM

SMILES: CC(C)[C@H](NC(=O)CN)C(=O)O[C@H](CN1C[C@H]2CCCC[C@H]2C[C@H]1C(=O)NC(C)(C)C)[C@H](Cc1ccccc1)NC(=O)[C@H](CC(N)=O)NC(=O)c1ccc2ccccc2n1
Ratio [29]: 2.1
